Assay results from the METLIN SMRT retention time set (Domingo-Almenara et al. 2019).

Experiment: gradient 5% acetonitrile 3 min, to 50% in 2 min, to 85% in 15 min, held 3 min, 100 µL/min
Conditions: column: Zorbax Extend-C18 2.1 x 50 mm; eluents: water / acetonitrile, 0.1% formic acid
In short: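 Mixtures of ~100 pure standards were chromatographed on a Zorbax Extend-C18 column (2.1 × 50 mm, 1.8 μm) at 100 μL/min using water and acetonitrile, each with 0.1% formic acid. Detection used a quadrupole time-of-flight mass spectrometer in positive and negative ionization mode, and data collection spanned 3 months. Retention time was obtained from adduct peaks picked computationally and each checked manually.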

| Compound | RP-LC retention time [s] |
| --- | --- |
| CC(=O)N1CCc2cc(C(=O)NCc3ccccc3)ccc21 | 736 |
| COc1ccc(CC(=O)NC2CCN(c3cc(-c4ccc(F)cc4)[nH]n3)C2)cc1OC (stereo not drawn) | 670 |
| Cc1nn2c(S(=O)(=O)NCc3cccs3)c(C)nc2s1 | 704 |
| Fc1ccc(-c2nnc(Cc3nc(-c4cccc(Cl)c4)no3)o2)cc1 | 1070 |
| Cc1ccc(S(=O)(=O)N2CC3CN(C(=O)C4COc5ccccc5O4)CC(C2)O3)cc1 (stereo not drawn) | 928 |
| CCOC(=O)c1ccc(NC(=O)N2CCN(CC)c3ncccc32)cc1 | 640 |
| Cc1nc(-c2cccc(NC(=O)c3cccc(F)c3)c2)cs1 | 856 |
| CCOC(=O)c1noc2ncnc(N3CCC(c4ccccc4)C3)c12 (stereo not drawn) | 1030 |
| CCc1noc(NC(C)=O)c1-c1ccc(OC)c(S(=O)(=O)Nc2cc(C)ccc2C)c1 | 846 |
| Cc1sc2ccn(C)c(=O)c2c1C(=O)NCc1ccc(F)cc1Cl | 827 |
| Cc1ccc(-c2cc(-c3nc4c5ccccc5ncn4n3)[nH]n2)c(C)c1 | 900 |
| Cc1ccc(C2Cn3nnc(-c4nc(-c5cccnc5)no4)c3CO2)c(C)c1 (stereo not drawn) | 1040 |
| CCc1nc2ccccc2c(=O)n1Cc1noc(/C=C/c2ccc(OC)cc2)n1 | 1000 |
| Cc1nc(-c2cc(S(=O)(=O)N3CCC(C(=O)NC4CCCCCCC4)CC3)c(C)s2)no1 | 1070 |
| CCOc1ccccc1NS(=O)(=O)c1cc(-c2c(CC)noc2NC(C)=O)ccc1OC | 840 |
| CCc1ccc(S(=O)(=O)N2CC(c3nc(-c4ccccc4)nn3C)C2)cc1 | 1030 |
| CCc1ccc(S(=O)(=O)NCCc2sc(C)nc2C)s1 | 647 |
| CCOc1ccc(C(=O)Nc2nc(-c3ccccc3)cs2)cc1Cl | 1260 |
| COc1ccc(-c2c(C)noc2NC(C)=O)cc1S(=O)(=O)N1CC=C(c2ccccc2)CC1 | 879 |
| O=S(=O)(NC1CCCCC1)c1ccc(-c2nnc(C3CC3)o2)o1 | 940 |

| Compound | RP-LC retention time [s] |
| --- | --- |
| CCN(CC)C(=O)c1ccc2c(c1)N(CC(=O)NCCC1=CCCCC1)C(=O)CS2 | 864 |
| O=C(NC1CCCCCC1)C1CCCN(c2nn3c(=O)c4c(nc3s2)CCCC4)C1 (stereo not drawn) | 838 |
| O=C(NCc1ccc(F)cc1F)c1cnn2c(-c3ccc4c(c3)OCO4)ccnc12 | 1000 |
| O=C(NCCc1ccccc1)c1c(O)c2sccc2n(Cc2ccccc2)c1=O | 1270 |
| COC(=O)c1ccc(NC(=O)Cn2cnc3c(sc4nc(-c5ccccc5)ccc43)c2=O)cc1 | 985 |
| CSc1ncccc1C(=O)N(Cc1cccs1)Cc1cccn1C | 904 |
| NS(=O)(=O)c1ccc(CNC(=O)CCCn2cnc(-c3ccc(F)cc3)cc2=O)cc1 | 652 |
| COc1ncc(C(=O)Nc2cc(C)ccc2F)c(C)n1 | 756 |
| O=C(OCc1cc(-c2cccs2)on1)c1cc(-c2ccco2)n[nH]1 | 786 |
| N#Cc1ccc(C(=O)Nc2nnc(CSc3ccccc3)o2)cc1 | 749 |
| COCCCNC(=O)c1nc(Nc2ccccc2)c2ccccc2n1 | 664 |
| COc1ccccc1-c1nc(SCC(=O)N2CCC(C(N)=O)CC2)n[nH]1 | 614 |
| CC(=O)c1ccc(NC(=O)CCSc2ccc(F)cc2)cc1 | 835 |
| Cc1cc2c(cc1S(=O)(=O)N(C)CC(=O)N1CCN(c3ccccn3)CC1)OC(C)C(=O)N2 (stereo not drawn) | 587 |
| CCCCNC(=O)c1nc(Nc2cccc(C)c2)c2ccccc2n1 | 858 |
| CN(C)C(=O)c1csc(S(=O)(=O)N2CCC(C(=O)NCc3ccc(F)cc3)CC2)c1 | 725 |
| COC(=O)c1ccc(C(=O)Nc2cccc3c(OC)cccc23)cc1 | 821 |
| CC1=C(CO)C(=O)O[C@@H]([C@@H](C)[C@H]2CCC3[C@@H]4C[C@H]5O[C@]56[C@@H](O)C=CC(=O)[C@]6(C)C4CC[C@@]32C)C1 (stereo partly drawn) | 759 |
| O=C(Cc1ccccc1Cl)NC1CCN(c2cc(-c3ccccc3)[nH]n2)C1 (stereo not drawn) | 721 |
| CN(C)c1nc2cc(C(=O)N3CCC4(CC3)OCCO4)sc2n1-c1ccc(F)cc1 | 654 |

| Compound | RP-LC retention time [s] |
| --- | --- |
| O=C(c1cccc(OC(F)(F)F)c1)N1C[C@@H]2C[C@H]1C[C@@H]2NS(=O)(=O)c1ccccc1 | 887 |
| CC(O)(CCc1ccccc1)CNC(=O)c1ccc(F)cc1 (stereo not drawn) | 758 |
| CCCNC(=O)CSc1cn(CC(=O)N2CC(C)OC(C)C2)c2ccccc12 (stereo not drawn) | 745 |
| Cc1ccc(NS(=O)(=O)c2cc(-c3cc(C(F)(F)F)on3)cs2)c(Br)c1 | 1160 |
| CC1Oc2ccccc2N(CC(=O)NC2CC2)C1=O (stereo not drawn) | 691 |
| Cc1cc(-c2nnc(-c3ccc(F)cc3)o2)c(C)n1CC(=O)Nc1cccc(F)c1 | 987 |
| COC(=O)c1ncn2c1C(=O)N(Cc1cccc(F)c1)C(C)(C(=O)NCc1ccc(C)cc1)C2 (stereo not drawn) | 760 |
| O=C1NC2(CCN(C(=O)Nc3cccc(F)c3)CC2)Oc2ccccc21 | 743 |
| CC(Oc1ccccc1F)C(=O)Nc1ccc(-c2nc(-c3ccccc3)no2)cc1 (stereo not drawn) | 1260 |
| CCN(CC)C(=O)C1CCN(c2nc3ccc(-c4cccs4)nc3s2)CC1 | 992 |
| COc1ccc(OC)c(Nc2c(-c3ccc(Br)cc3)nc3cnccn23)c1 | 1000 |
| CS(=O)(=O)N1CCCN(C(=O)NC2CCCC2)CC1 | 636 |
| Nn1nnc2ccccc21 | 651 |
| Cc1ccc(NC(=O)NCC2CCOCC2)c(Cl)c1 | 720 |
| O=C(Nc1nc(-c2ccc([N+](=O)[O-])cc2)cs1)C1=COCCO1 | 844 |
| O=C(CCS(=O)(=O)c1ccccc1)Nc1cc(-c2ccco2)nn1CCO | 643 |
| COc1ccccc1-c1csc(NC(=O)Cc2csc(-c3ccccc3)n2)n1 | 1150 |
| CCOC(C)C(/C=N/NC(N)=S)=N/NC(N)=S (stereo not drawn) | 654 |

Results, then the compound that gave them:

| RP-LC retention time [s] | Compound |
| --- | --- |
| 822 | COc1ccc(NC(=O)Cn2c(=O)c3cc(-c4ccco4)nn3c3ncccc32)cc1Cl |
| 541 | CCc1nnc2cc(N3CCN(Cc4cn[nH]c4-c4ccccc4)CC3)cnn12 |
| 669 | O=C(Cn1cnc2nc(N3CCCC(C(=O)NC4CC4)C3)sc2c1=O)NCc1ccc(F)cc1 (stereo not drawn) |
| 1000 | Cc1ccc(OCC(=O)Nc2cc3c(cc2N2CCCC2)n(C)c(=O)c(=O)n3C)c(C)c1 |
| 694 | O=C(CSc1ccc(N2CCCC(C(=O)NC3CC3)C2)nn1)NCc1ccc(C(F)(F)F)cc1 (stereo not drawn) |
| 666 | Cc1ccc(NC(=O)NCCn2c(-c3ccncc3)nc3cccnc32)cc1Cl |
| 710 | COc1c(C(=O)NCCN2CCCCC2C)sc2cc(Cl)ccc12 (stereo not drawn) |
| 764 | Cn1nc(C(=O)N2CCCCC2)c2c1CCN(C(=O)Nc1ccccc1Br)C2 |
| 786 | Cc1ccc(CN2CCN(CC(=O)Nc3ccc(C)cc3)C(=O)C2=O)cc1 |
| 759 | O=C(NC1CCCC1)c1nc(C(=O)N2CCN(c3ncccn3)CC2)cs1 |
| 643 | Cn1c(=O)n(CCN2CCOCC2)c(=O)c2c1nc1n2CCCN1c1ccc(Cl)cc1 |
| 621 | CCc1ccc(C(O)CN2CCN(c3ncccn3)CC2)cc1 (stereo not drawn) |
| 960 | Cc1cccc(-n2c(=O)c3c(cc(C)n3C)n(CC(=O)Nc3cc(Cl)ccc3C)c2=O)c1 |
| 904 | CCc1ccc(S(=O)(=O)N2CCC(c3nc(C(=O)N4CCOCC4)c(C)o3)CC2)cc1 |
| 570 | CN1CCN(CCNC(=O)Cn2c3ccccc3c3cnn(C)c(=O)c32)CC1 |
| 696 | O=C(CN1CCc2ccccc2C1C(=O)N1CCCC1)N1CCN(c2ccccc2)CC1 (stereo not drawn) |
| 628 | CCN(CC)C(=O)c1ccc2oc(CN3CCN(C(=O)NC(C)(C)C)CC3)nc2c1 |
| 711 | CCOC(=O)c1ccc(NS(=O)(=O)c2cc3n(c2)CCCN(C)C3=O)cc1 |
| 836 | CCc1cccc(NC(=O)C2CCCN2S(=O)(=O)c2cc3c(cc2Cl)NC(=O)CO3)c1 (stereo not drawn) |
| 693 | CCc1c(C2CCN(C(=O)Nc3ccc(OC)cc3)CC2)noc1N |
| 956 | Cc1ccc(Cn2nnc(C(=O)N3CCSCC3)c2-n2cccc2)cc1 |
| 1160 | Cc1ccc(-c2nnc(-c3nn(C)c4c3CN(S(=O)(=O)c3ccc(C(C)C)cc3)CC4)o2)cc1 |
| 555 | COc1cccc(C(=O)N2CCc3nc(CNC(=O)C4CCC4)n(C)c3C2)c1 |
| 1010 | Cc1ccc(C(=O)N2CCCC2c2nc(-c3ccc(F)cc3F)no2)s1 (stereo not drawn) |
| 1140 | Cc1ccc(N2C(=O)C3N=NN(Cc4nc(-c5ccccc5C)no4)C3C2=O)cc1Cl (stereo not drawn) |
| 685 | CC1CCCN(c2ccc(NC(=O)Cc3cccs3)c(C(=O)O)c2)C1 (stereo not drawn) |
| 1120 | CCN1C(=O)C2(CCN(S(=O)(=O)c3ccc(C)c(F)c3)CC2)c2ccccc21 |
| 599 | COc1ccccc1N1CCN(CCNC(=O)C(=O)NC2CCCCC2)CC1 |
| 624 | O=S(=O)(c1cccc2cccnc12)N1CCCn2nc(-c3cccnc3)cc2C1 |
| 800 | Cc1cc(C)cc(NC(=O)N2CCC(N3CCN(Cc4cccc(F)c4)C(=O)C3=O)CC2)c1 |
